Measurements: patent US10011615B2, “Heterobicyclo-substituted [1,2,4]triazolo[1,5-c]quinazolin-5-amine compounds with A2A anatagonist properties” (Merck Sharp & Dohme Corp., priority 2012, dated 2018)
pEC50: −log10 of the molar value.

These compounds were tested against T1, human A2a receptor (Homo sapiens, UniProt P29274) (assay: A2a receptor competition binding assay using Scintillation Proximity technology). Details: membranes from HEK293 cells expressing human A2a receptor; 0.5 nM tritiated radioligand; SPA beads; 1 h room temperature.
T1 construct: purchased Perkin-Elmer RBHA2AM400UA; host or cells: HEK293 cell membranes
Method: Binding affinities of compounds of the invention for the human A2a receptor were determined in a competition binding assay using Scintillation Proximity technology. Thus, 0.3 μg of membranes from HEK293 cells expressing the human A2a receptor were incubated with a compound of the invention at concentrations ranging from 3000 nM to 0.15 nM in a reaction mixture containing also 0.5 nM of a tritiated form of 5-amino-7-[2-phenethyl]-2-(furan-2-yl)-7H-pyrazolo[4,3-e][1,2,4]triazolo[1,5-c]pyrimidine (the tritiated compound) and 100 μg of wheat germ agglutin-coated yttrium silicate SPA beads for one hour at room temperature with agitation. The beads were then allowed to settle to the bottom of the wells for 1 hr, after which the membrane-associated radioactivity was determined by scintillation counting in a TopCount microplate reader. Ki values were determined using the Cheng-Prusoff equation.
Summary of Materials and Methods Used in A2a Activity Determination:
HEK293 cells expressing the human, rat, dog or monkey adenosine 2a receptor (Purchased from Perkin-Elmer # RBHA2AM400UA).
The Tritiated compound was prepared in-house by MRL Radiochemistry according to published methods.
Wheat germ agglutinin-coated yttrium silicate SPA beads (GE Healthcare#RPNQ0023). Dilute to 25 mg/ml in assay buffer.
Assay Buffer was prepared in house: Dulbecco's calcium and magnesium free phosphate buffered saline+10 mM MgCl2
Adenosine deaminase from calf intestine, 10 mg/2 ml (Roche) 10 102 105 001).
A2a antagonist standard (9-chloro-1-(2-furanyl)-[1,2,4]triazolo1,5-c]quinazolin-5-amine from Tocris Bioscience)
Make eight 1:3 serial dilutions in 100% DMSO from a 3 mM compound stock
Transfer 50 nl of compound into a 384-well OptiPlate (Perkin Elmer).
Typically, final concentrations of compound used in the assay ranged from 3000 nM to 0.152 nM.
Dilute a solution of the Tritiated compound to 1.25 nM in assay buffer. This is a 2.5× solution. The final concentration in the assay is 0.5 nM. Calculate the concentration by counting two 5 μl aliquots.
Use 0.25 ug of membrane/well. Dilute membranes to 9.7 μg/ml in assay buffer. Treat with 20 ug/ml adenosine deaminase (ADA) for 15 minutes at room temperature to degrade endogenous adenosine.
Use 100 μg/well wheat germ agglutinin-coated yttrium silicate SPA beads.
Mix ADA-treated membranes and SPA beads together for 30 min prior to assay.
To the Perkin-Elmer Optiplate-384 containing the compound titration add 20 μl of 2.5× solution of the Tritiated compound and 30 μl of the membrane-bead mixture. Incubate for one hour at room temperature with agitation.
Include total binding (assay buffer+1% DMSO) and non-specific binding (CGS15943, 1 μM) wells.
Allow the beads to settle for one hour.
A curve fitting program (i.e., Prism, Activity Base, Chemcart) is used to determine the EC50. The Ki value is calculated using the Cheng-Prusoff equation: K i=EC50/(1+(radioligand concentration/Kd)).

T1 sequence (P29274 whole entry): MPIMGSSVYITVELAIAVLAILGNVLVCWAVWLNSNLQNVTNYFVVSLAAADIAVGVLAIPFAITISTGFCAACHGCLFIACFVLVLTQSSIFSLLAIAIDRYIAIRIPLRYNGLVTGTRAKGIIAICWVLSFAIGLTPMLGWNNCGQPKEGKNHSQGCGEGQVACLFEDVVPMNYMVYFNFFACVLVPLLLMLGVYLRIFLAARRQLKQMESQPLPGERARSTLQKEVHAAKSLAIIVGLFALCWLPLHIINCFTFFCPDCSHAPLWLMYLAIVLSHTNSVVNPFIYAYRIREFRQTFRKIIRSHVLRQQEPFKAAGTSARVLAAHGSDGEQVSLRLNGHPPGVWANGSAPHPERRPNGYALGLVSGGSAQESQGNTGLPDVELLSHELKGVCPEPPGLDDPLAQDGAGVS

Row | pEC50 | Structure (SMILES)
1 | 8.96 | COc1cccc2c1nc(N)n1nc(CCN3CCc4nc(C5CC5)sc4C3)nc21 [Ex-30, 2-(2-(2-cyclopropyl-6,7-dihydrothiazolo[5,4-c]pyridin-5(4H)-yl)ethyl)-7-methoxy-[1,2,4]triazolo[1,5-c]quinazolin-5-amine]
2 | 8.89 | COc1cccc2c1nc(N)n1nc(CCN3CCc4nc(C5CC5)oc4C3)nc21 [Ex-31, 2-(2-(2-cyclopropyl-6,7-dihydrooxazolo[5,4-c]pyridin-5(4H)-yl)ethyl)-7-methoxy[1,2,4]triazolo[1,5-c]quinazolin-5-amine]
3 | 8.85 | COc1cccc2c1nc(N)n1nc(CCN3CCc4c(c(C(F)(F)F)nn4C)C3)nc21 [Ex-32, 7-methoxy-2-(2-(1-methyl-3-(trifluoromethyl)-677-dihydro-1H-pyrazolo[4,3-c]pyridin-5(4H)-yl)ethyl)-[1,2,4]triazolo[1,5-c]quinazolin-5-amine]
4 | 8.38 | COc1cccc2c1nc(N)n1nc(CCN3CCn4nccc43)nc21 [Ex-33, 2-(2-(2,3-dihydro-1H-imidazo[1,2-b]pyrazol-1-yl)ethyl)-7-methoxy-[1,2,4]triazolo[1,5-c]quinazolin-5-amine]
5 | 8.77 | COc1cccc2c1nc(N)n1nc(CCN3Cc4nc(-c5ccccc5)[nH]c4C3)nc21 [Ex-34]
6 | 8.64 | COc1cccc2c1nc(N)n1nc(CCN3CCc4oncc4C3)nc21 [Ex-35, 2-(2-(6,7-dihydroisoxazolo[4,5-c]pyridin-5(4H)-yl)ethyl)-7-methoxy-[1,2,4]triazolo[1,5-c]quinazolin-5-amine]
7 | 8.17 | COc1cccc2c1nc(N)n1nc(CCN3CCc4[nH]ncc4C3)nc21 [Ex-36, 2-(2-(6,7-dihydro-1H-pyrazolo[4,3-c]pyridin-5(4H)-yl)ethyl)-7-methoxy-[1,2,4]triazolo[1,5-c]quinazolin-5-amine]
8 | 8.19 | COc1cccc2c1nc(N)n1nc(CCN3CCc4[nH]nc(C)c4C3)nc21 [Ex-37, 7-methoxy-2-(2-(3-methyl-6,7-dihydro-1H-pyrazolo[4,3-c]pyridin-5(4H)-yl)ethyl)-[1,2,4]triazolo[1,5-c]quinazolin-5-amine]
9 | 8.70 | COc1cccc2c1nc(N)n1nc(CCN3CCc4[nH]nc(C(F)(F)F)c4C3)nc21 [Ex-38, 7-methoxy-2-(2-(3-(trifluoromethyl)-6,7-dihydro-1H-pyrazolo[4,3-c]pyridin-5(4H)-yl)ethyl)-[1,2,4]triazolo[1,5-c]quinazolin-5-amine]
10 | 8.74 | COc1cccc2c1nc(N)n1nc(CCN3CCc4sccc4C3)nc21 [Ex-39]
11 | 8.96 | COc1cccc2c1nc(N)n1nc(CCN3CCc4c(C5CC5)n[nH]c4C3)nc21 [Ex-40, 2-(2-(3-cyclopropyl-4,5-dihydro-1H-pyrazolo[3,4-c]pyridin-6(7H)-yl)ethyl)-7-methoxy-[1,2,4]triazolo[1,5-c]quinazolin-5-amine]
12 | 8.59 | COc1cccc2c1nc(N)n1nc(CCN3CCn4nc(C)cc4C3)nc21 [Ex-41, 7-methoxy-2-(2-(2-methyl-6,7-dihydropyrazolo[1,5-a]pyrazin-5(4H)-yl)ethyl)-[1,2,4]triazolo[1,5-c]quinazolin-5-amine]
13 | 8.85 | COc1cccc2c1nc(N)n1nc(CCN3CCc4c(C(F)(F)F)n[nH]c4C3)nc21 [Ex-42, 7-methoxy-2-(2-(3-(trifluoromethyl)-4,5-dihydro-1H-pyrazolo[3,4-c]pyridin-6(7H)-yl)ethyl)-[1,2,4]triazolo[1,5-c]quinazolin-5-amine]
14 | 8.08 | COc1cccc2c1nc(N)n1nc(CCN3CCCc4c3c(C(F)(F)F)nn4C)nc21 [Ex-43, 7-methoxy-2-(2-(1-methyl-3-(trifluoromethyl)-6,7-dihydro-1H-pyrazolo[4,3-b]pyridin-4(5H)-yl)ethyl)-[1,2,4]triazolo[1,5-c]quinazolin-5-amine]
15 | 8.38 | COc1cccc2c1nc(N)n1nc(CCN3CCc4cc(F)ccc4C3)nc21 [Ex-44, 2-(2-(6-fluoro-3,4-dihydroisoquinolin-2(1H)-yl)ethyl)-7-methoxy-[1,2,4]triazolo[1,5-c]quinazolin-5-amine]
16 | 8.37 | COc1cccc2c1nc(N)n1nc(CCN3CCc4cccnc4C3)nc21 [Ex-45, 2-(2-(5,6-dihydro-1,7-naphthyridin-7(8H)-yl)ethyl)-7-methoxy-[1,2,4]triazolo[1,5-c]quinazolin-5-amine]
17 | 7.74 | COc1cccc2c1nc(N)n1nc(CCN3Cc4ccc(C(F)(F)F)cc4C3)nc21 [Ex-46, 7-methoxy-2-(2-(5-(trifluoromethyl)isoindolin-2-yl)ethyl)-[1,2,4]triazolo[1,5-c]quinazolin-5-amine]
18 | 8.34 | COc1cccc2c1nc(N)n1nc(CCN3Cc4ccc(F)cc4C3)nc21 [Ex-48, 2-(2-(5-fluoroisoindolin-2-yl)ethyl)-7-methoxy-[1,2,4]triazolo[1,5-c]quinazolin-5-amine]
19 | 8.27 | COc1cccc2c1nc(N)n1nc(CCN3Cc4cccnc4C3)nc21 [Ex-49, 2-(2-(5H-pyrrolo[3,4-b]pyridin-6(7H)-yl)ethyl)-7-methoxy-[1,2,4]triazolo[1,5-c]quinazolin-5-amine]
20 | 8.82 | COc1cccc2c1nc(N)n1nc(CCN3Cc4[nH]nc(-c5ccccc5)c4C3)nc21 [Ex-50, 7-methoxy-2-(2-(3-phenylpyrrolo[3,4-c]pyrazol-5(1H,4H,6H)-yl)ethyl)-[1,2,4]triazolo[1,5-c]quinazolin-5-amine]
21 | 8.54 | COc1cccc2c1nc(N)n1nc(CCN3Cc4cn[nH]c4C3)nc21 [Ex-51, 7-methoxy-2-(2-(pyrrolo[3,4-c]pyrazol-5(1H,4H,6H)--yl)ethyl)-[1,2,4]triazolo[1,5-c]quinazolin-5-amine]
22 | 8.06 | COc1cccc2c1nc(N)n1nc(CCN3CCCc4[nH]nc(C5CC5)c43)nc21 [Ex-52, 2-(2-(3-cyc1opropyl-6,7-dihydro-1H-pyrazolo[4,3-b]pyridin-4(5H)-yl)ethyl)-7-methoxy[1,2,4]triazolo[1,5-c]quinazolin-5-amine]
23 | 8.62 | COc1cccc2c1nc(N)n1nc(CCN3CCc4cncnc4C3)nc21 [Ex-53, 2-(2-(5,6-dihydropyrido[3,4-d]pyrimidin-7(8H)-yl)ethyl)-7-methoxy-[1,2,4]triazolo[1,5-c]quinazolin-5-amine]
24 | 8.40 | COc1cccc2c1nc(N)n1nc(CCN3CCc4ncncc4C3)nc21 [Ex-54, 2-(2-(7,8-dihydropyrido[4,3-d]pyrimidin-6(5H)-yl)ethyl)-7-methoxy-[1,2,4]triazolo[1,5-c]quinazolin-5-amine]
25 | 8.74 | COc1cccc2c1nc(N)n1nc(CCN3CCc4nccnc4C3)nc21 [Ex-55, 2-(2-(7,8-dihydropyrido[4,3-b]pyrazin-6(5H)-yl)ethyl)-7-methoxy-[1,2,4]triazolo[1,5-c]quinazolin-5-amine]
26 | 8.47 | COc1cccc2c1nc(N)n1nc(CCN3CCc4ncsc4C3)nc21 [Ex-56, 2-(2-(6,7-dihydrothiazolo[5,4-c]pyridin-5(4H)-yl)ethyl)-7-methoxy-[1,2,4]triazolo[1,5-c]quinazolin-5-amine]
27 | 8.77 | COc1cccc2c1nc(N)n1nc(CCN3CCc4scnc4C3)nc21 [Ex-57, 2-(2-(6,7-dihydrothiazolo[4,5-c]pyridin-5(4H)-yl)ethyl)-7-methoxy-[1,2,4]triazolo[1,5-c]quinazolin-5-amine]
28 | 9.05 | COc1cccc2c1nc(N)n1nc(CCN3CCn4cc(C(F)(F)F)nc4C3)nc21 [Ex-58, 7-methoxy-2-(2-(2-(trifluoromethyl)-5,6-dihydroimidazo[1,2-a]pyrazin-7(8H)-yl)ethyl)-[1,2,4]triazolo[1,5-c]quinazolin-5-amine]
29 | 8.02 | COc1cccc2c1nc(N)n1nc(CCN3CCCn4nccc43)nc21 [Ex-59, 2-(2-(6,7-dihydropyrazolo[1,5-a]pyrimidin-4(5H)-yl)ethyl)-7-methoxy-[1,2,4]triazolo[1,5-c]quinazolin-5-amine]
30 | 8.64 | COc1cccc2c1nc(N)n1nc(CCN3CCCn4nc(C)cc4C3)nc21 [Ex-60, 7-methoxy-2-(2-(2-methyl-7,8-dihydro-4H-pyrazolo[1,5-a][1,4]diazepin-5(6H)-yl)ethyl)-[1,2,4]triazolo[1,5-c]quinazolin-5-amine]
